In patent US12215162B2, “BAFF-R targeted chimeric antigen receptor-modified T-cells and uses thereof” (CITY OF HOPE, priority 2016, dated 2025):

Experiments:
[1] = tested on: RS4; 11 (acute lymphoblastic leukemia, ALL); assay: In vivo RS4;11 ALL tumor model, antibody treatment; design: species or system NSG mice; conditions: 200 μg antibody + NK-92-176V cells + IL-2 IV
Excerpt: FIG. 4A is a schematic showing treatment schedule following Day 0 tumor challenge with minimum lethal dose of tumors. Treatments were given by IV tail vein injections. FIGS. 4B and 4C are images showing chimeric antibodies targeting human BAFF-R elicited in vivo therapeutic effects against B-cell tumors. Bioluminescence images of mice challenged with luciferase-expressing tumors: JeKo-1 (MCL) (FIG. 4B) or RS4; 11 (ALL) (FIG. 4C). Experimental groups received treatment of chimeric BAFF-R mAbs (C55 or C90, as indicated). Control group mice received PBS, NK cells alone, or rituximab on the same schedule. Data are representative of three independent experiments.
(§1) In vivo studies. For tumor models, stable, luciferase-expressing tumors lines were established for bioluminescent imaging in mouse models. Briefly, a luciferase gene was introduced into tumor lines by a lentivirus gene delivery system (pLenti7.3/V5-DEST Gateway Vector Kit, Life Technologies, Carlsbad, CA). The minimum lethal dose per mouse was determined for each tumor cell line by dose titration. Tumor cells were injected intravenously (IV) and mice were monitored by in vivo bioluminescence imaging for minimum tumor dose to ensure engraftment. Minimum lethal tumor doses were 1×10^6 JeKo-1, 5×10^5 RS4; 11, 5×10^5 JeKo-1-CD20-KO, or 2.5×10^4 Z-138 cells. […]

JeKo-1-CD20-KO clone 25 = assay: ADCC against rituximab-resistant JeKo-1-CD20-KO; type: cell-based, human; conditions: NK cells E:T 20:1
Method: FIGS. 5A, 5B and 5C are images or graphs showing chimeric BAFF-R antibodies induce ADCC on drug resistant lymphoma models in vitro. FIG. 5A is a scatterplot of FACS analysis showing CD20 binding on JeKo-1 cells following CRISPR/HDR knock-out of CD20 gene. CD20 expression on selected CD20−/−clone #25 compared to WT JeKo-1. ADCC effects measured by chromium-51 release after incubation with C55, C90, or rituximab and effectors NK cells (E:T=20:1). Percentage of cell specific lysis of target cells: rituximab-resistant JeKo-1-CD20-KO (FIG. 5B) and ibrutinib-resistant Z-138 and SP49-IR (FIG. 5C). All data are representative of two or more identical experiments. Data are shown as the mean±s.d. of triplicate samples. *P<0.05 compared with NK cells by two-tailed Student's t-test.
Cytotoxicity assays. Target cells (L cells, human tumor lines, primary patient samples) were labeled with chromium-51 (51Cr, Perkin Elmer, Waltham, MA) for a 51Cr release assay. Briefly, antibodies and effectors (NK cells or complement serum standard [Sigma Aldrich, St. Louis, MO]), were added to labeled target cells and incubated up to 18 hours. NK cells were enriched from PBMC (NK cell enrichment kit, Stemcell Technologies, Vancouver, Canada). 51Cr released into supernatant was detected with a Wizard Automatic Gamma Counter (Perkin Elmer).
Generation of JeKo-1-CD20-KO. […]

JeKo-1-CD20-KO = assay: In vivo JeKo-1-CD20-KO tumor model, antibody treatment; design: species or system NSG mice; conditions: Day 20
Excerpt: FIGS. 6A and 6B are images and FIG. 6C are graphs showing chimeric antibodies targeting human BAFF-R elicited in vivo therapeutic effects against drug resistant B-cell tumors. Bioluminescence images of mice challenged with luciferase-expressing tumors JeKo-1-CD20-KO cells (FIG. 6A) or ibrutinib-resistant Z-138 cells (FIG. 6B) followed by antibody treatments as in FIG. 4. Control group mice received PBS, NK cells alone, or rituximab on the same schedule. […] Tumor free rate and survival differences between experimental and all control groups were analyzed by log-rank test (** P<0.001). Data are representative of three independent experiments.
as §1

[2] = tested on: RS4 acute lymphoblastic lymphoma; assay: Chromium release ADCC on RS4; type: cell-based, human; conditions: NK cells E:T 20:1, 6 hours
Method: FIGS. 21A and 21B are graphs showing humanized antibodies C90-4 and C90-5 analyzed for their specific cytotoxicity of various lymphoma lines. For FIG. 21A, JeKo-1, Z138, and RS4 were subjected to a chromium release assay with humanized antibodies C90-4 and C90-5. Antibodies were administered to the cell lines at concentrations between 0 to 5 μg/mL and incubated for 6 hours with NK cells at an E:T ratio of 20:1. The cell supernatants were analyzed for their chromium content. For FIG. 21B, LY-10, MEC-2, RL, and Raji lymphoma lines were subjected to a chromium release assay with humanized antibodies C90-4 and C90-5. Antibodies were administered to the cell lines at 5 μg/mL and incubated for 6 hours with NK cells at an E:T ratio of 20:1. The cell supernatants were analyzed for their chromium content.
The two variants were further assessed in their ability to initiate ADCC. The antibodies were administered in varying concentration to JeKo-1, Z138, and RS4 lines after a period of chromium uptake. The cells and antibodies were incubated with effector NK cells. The supernatant was analyzed 6 hours post treatment (FIG. 21A).

SP49 = conditions: 100 nM ibrutinib; cited from earlier work
SP49-IR = conditions: 100 nM ibrutinib; cited from earlier work

rituximab [reference compound]
tumor growth (bioluminescence) [1]: no inhibition | sensitivity to antibody-mediated cytotoxicity (JeKo-1-CD20-KO clone 25): insensitive | tumor burden by bioluminescent imaging (JeKo-1-CD20-KO): substantial tumor burden | activity (ADCC) [2]: not active

C=CC(=O)N1CCC[C@@H](n2nc(-c3ccc(Oc4ccccc4)cc3)c3c(N)ncnc32)C1 [ibrutinib]
viable cells (SP49): ~5% | viable cells (SP49-IR): > 90%
